The text below walks through data of patent US7037656B2, “Methods and compositions for identifying ligands for nuclear receptors” (priority 2000, dated 2006).

What all share (experiment): Yeast 6x EcRE-lacZ β-galactosidase transactivation assay
The target in test [1] is T1, Cf ΔA/B EcR + Cf ΔA/B USP + GRIP1 (Choristoneura fumiferana, UniProt O77240).
T1 construct: human ubiquitin (76 aa) (N, cleaved yes); expressed in transfected cells; host or cells: yeast (Saccharomyces cerevisiae)
It counts as cell-based. The conditions noted are these: RH 5992 10 μM, 4 hours, DMSO control 0.200. The method, then: (§1) Briefly, yeast cells are cultured in 5 mL of YPD liquid medium overnight at 30° C. The cell culture was diluted 1:20 in YPD media and further grown until cell density reached an O.D of 0.6. at OD600. The cells were pelleted by centrifugation and washed with 10 mL of TE+0.1M lithium acetate. Cells are then resuspended in 10 mL TE+0.1M lithium acetate and incubated at 30° C. for 1 hour. Cells are collected and resuspended in 0.5 mL of TE+ 0.1M lithium acetate. Aliquots of cells (50 μL), were incubated for 15 minutes at 30° C. with 1–2 μg plasmid DNA in the presence of 5 μg of denatured salmon sperm DNA as DNA carrier. In the case of co-transformation, the indicated plasmids were added simultaneously. 50% polyethyleneglycol of molecular weight 4000, diluted in TE, was added to a final concentration of 35%. DMSO was added to the transformation solution simultaneously to a final concentration 3%. The samples were mixed well by vortexing and incubated for an additional 30 minutes at 30° C. The cell mixture is then heated for 15 minutes at 42° C. Cells were then collected and plated onto appropriate yeast selective media. Transformants of 4 plasmids are selected on the complete media without tryptophan, uracil, leucine and histidine.
The yeast cells grown overnight in selective liquid media at 30° C. were diluted in prewarmed liquid selective media to 0.1 at OD600 (ODculture). […]

Test [2] addresses T2, Dm ΔN EcR +Aa USPb-form + GRIP1 (Drosophila melanogaster, UniProt P34021).
T2 construct: ubiquitin (human, 76 aa) (N, cleaved yes); expressed in transfected cells
It counts as cell-based, Drosophila melanogaster; Aedes aegypti. To be noted: RH 5992 10 μM, 4 hours, DMSO control 0.251. Here is the method: as §1, with “DMSO was added to the transformation solution simultaneously to a final concentration 3%. The samples were mixed well by vortexing and incubated for an additional 30 minutes at 30° C. The cell mixture is then heated for 15 minutes at 42° C. Cells were then collected and plated onto appropriate yeast selective media. Transformants of 4 plasmids are selected on the complete media without tryptophan, uracil, leucine and histidine.” left out
(§2) Using the transformation method set forth above, yeast were co-transformed with a reporter gene as shown in FIG. 2 and the expression vector encoding the full-length D. melanogaster ecdysone receptor, DmEcR (FIG. 3A) in the presence or absence of the Dm EcR heterodimer partner, DmUSP (FIG. 4A). […] As the N-terminal portion of the Dm EcR receptor is reported to play a role in ligand independent transactivation, an expression vector containing an N-terminal deletion in the EcR was constructed (see FIG. 3B) and assessed in the β-galactosidase assays described above. […]

In test [3] the target is T3, Dm ΔN EcR +Aa USPa-form + GRIP1 (Drosophila melanogaster, UniProt P34021).
T3 construct: ubiquitin (human, 76 aa) (N, cleaved yes); expressed in transfected cells
T3 sequence (P34021 221-878, stated change not applied): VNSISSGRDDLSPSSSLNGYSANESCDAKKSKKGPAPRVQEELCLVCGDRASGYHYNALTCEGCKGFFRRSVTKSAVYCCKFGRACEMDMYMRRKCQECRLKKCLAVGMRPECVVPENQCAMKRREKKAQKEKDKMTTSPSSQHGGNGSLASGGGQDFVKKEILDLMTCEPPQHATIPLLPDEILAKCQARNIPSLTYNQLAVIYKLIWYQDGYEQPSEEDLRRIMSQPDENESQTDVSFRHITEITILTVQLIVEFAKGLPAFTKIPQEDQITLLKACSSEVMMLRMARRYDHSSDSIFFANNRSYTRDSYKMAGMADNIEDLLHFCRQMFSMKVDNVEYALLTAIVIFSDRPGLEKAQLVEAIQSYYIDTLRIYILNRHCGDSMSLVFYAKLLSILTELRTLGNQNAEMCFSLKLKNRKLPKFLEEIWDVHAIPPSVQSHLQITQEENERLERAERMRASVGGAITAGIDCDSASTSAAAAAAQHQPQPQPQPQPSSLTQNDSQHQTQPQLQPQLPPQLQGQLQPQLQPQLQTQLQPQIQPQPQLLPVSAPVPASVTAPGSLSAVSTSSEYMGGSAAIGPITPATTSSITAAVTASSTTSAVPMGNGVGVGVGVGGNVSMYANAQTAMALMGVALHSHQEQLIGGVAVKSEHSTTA
It counts as cell-based, Drosophila melanogaster; Aedes aegypti. The conditions noted are these: RH 5992 10 μM, 4 hours, DMSO control 0.243. Here is the method: as §1, with “DMSO was added to the transformation solution simultaneously to a final concentration 3%. The samples were mixed well by vortexing and incubated for an additional 30 minutes at 30° C. The cell mixture is then heated for 15 minutes at 42° C. Cells were then collected and plated onto appropriate yeast selective media. Transformants of 4 plasmids are selected on the complete media without tryptophan, uracil, leucine and histidine.” left out
as §2

Each structure is given as a SMILES string. Several values for one entry are separate records, joined by “and”; a condition that tells them apart may be missing. Equal values may be shown once.

T1 sequence (O77240 entry or part of it, stated change not applied): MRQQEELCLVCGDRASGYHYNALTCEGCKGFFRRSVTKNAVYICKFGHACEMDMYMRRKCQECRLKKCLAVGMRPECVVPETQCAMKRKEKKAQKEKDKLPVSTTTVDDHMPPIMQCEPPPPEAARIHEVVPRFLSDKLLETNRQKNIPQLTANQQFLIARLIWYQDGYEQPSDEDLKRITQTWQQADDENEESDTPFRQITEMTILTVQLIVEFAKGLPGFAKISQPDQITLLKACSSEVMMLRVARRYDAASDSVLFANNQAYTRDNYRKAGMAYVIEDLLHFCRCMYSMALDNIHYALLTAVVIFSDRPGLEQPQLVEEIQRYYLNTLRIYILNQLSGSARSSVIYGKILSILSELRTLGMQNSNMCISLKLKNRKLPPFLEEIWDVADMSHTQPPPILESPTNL
T1 sequence (O76202 with tags, fused parts or gaps partner): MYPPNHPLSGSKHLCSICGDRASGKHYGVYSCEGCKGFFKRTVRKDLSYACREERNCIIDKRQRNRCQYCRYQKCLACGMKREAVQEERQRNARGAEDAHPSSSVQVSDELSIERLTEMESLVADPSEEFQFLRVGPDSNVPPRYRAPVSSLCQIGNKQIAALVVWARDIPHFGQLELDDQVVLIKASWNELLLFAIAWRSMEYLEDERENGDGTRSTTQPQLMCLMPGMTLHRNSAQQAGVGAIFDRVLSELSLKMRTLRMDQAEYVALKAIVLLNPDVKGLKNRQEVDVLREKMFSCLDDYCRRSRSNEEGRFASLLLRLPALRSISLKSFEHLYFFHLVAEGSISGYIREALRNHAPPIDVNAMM
T2 sequence (P34021 221-878, stated change not applied): as the sequence (P34021 221-878, stated change not applied) above

For the compound `CCc1ccc(C(=O)NN(C(=O)c2cc(C)cc(C)c2)C(C)(C)C)cc1` [RH 5992, tebufenozide], the β-galactosidase activity in test [1] was 2.500 and 3.000; in test [2], 2.068; in test [3], 1.860.
